We go through 2 compounds from patent publication US7476670B2, “Purine derivatives, method for preparing, pharmaceutical compositions and novel use” (Aventis Pharma S.A., priority 2003, dated 2009).

What all share (format): biochemical
Assay [1] addresses T1, ZAP kinase (Homo sapiens, UniProt P43403).
T1 construct: purchased Panvera P2782
T1 sequence (P43403 1-619): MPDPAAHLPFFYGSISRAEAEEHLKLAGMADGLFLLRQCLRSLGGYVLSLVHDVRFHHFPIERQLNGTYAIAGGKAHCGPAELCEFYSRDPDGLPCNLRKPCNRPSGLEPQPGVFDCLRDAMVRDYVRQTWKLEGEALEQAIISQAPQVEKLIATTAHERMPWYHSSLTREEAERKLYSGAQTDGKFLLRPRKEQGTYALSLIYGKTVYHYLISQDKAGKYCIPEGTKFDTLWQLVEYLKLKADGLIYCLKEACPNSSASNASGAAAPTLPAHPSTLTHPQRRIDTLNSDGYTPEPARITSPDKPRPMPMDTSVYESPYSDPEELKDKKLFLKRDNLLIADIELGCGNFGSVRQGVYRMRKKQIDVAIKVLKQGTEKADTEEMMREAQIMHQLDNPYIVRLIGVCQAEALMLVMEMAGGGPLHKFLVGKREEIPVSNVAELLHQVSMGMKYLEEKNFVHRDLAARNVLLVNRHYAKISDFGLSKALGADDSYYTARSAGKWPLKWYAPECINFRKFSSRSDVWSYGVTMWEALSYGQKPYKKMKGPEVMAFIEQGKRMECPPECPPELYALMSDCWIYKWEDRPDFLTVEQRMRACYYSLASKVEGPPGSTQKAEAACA
The experiment in a line: Assay for inhibition of ZAP kinase activity. Particulars: fluorescence polarization, read-out: percentage inhibition at 20 μM. As for the experimental part:
The inhibition of the kinase activity is determined by fluorescence polarization, the ZAP kinase phosphorylates a peptide detected by adding an anti-phosphopeptide antibody coupled to a fluorescent label.
The assay is carried out in a final volume of 50 μl; all the reagents are prepared in a buffer: • 20 mM Tris/HCl pH 7.7 • 7 mM MnCl2 • 50 μM Na2VO4 5 μl of the 10-times concentrated inhibitor are added to 25 μl of enzyme (0.7 μg/ml final concentration) (Panvera ref P2782). After incubation for 5 minutes at ambient temperature, 10 μl of PolyGT (300 ng/ml final concentration) and 10 μl of ATP (0.25 μM final concentration) are added. The detection is carried out after incubation for 15 minutes at ambient temperature. • Results obtained expressed as percentage inhibition at 20 μM • Example 8 98% • Example 20 95% • Example 24 96% 7) Assay for Inhibition of Casein Kinase II Activity
In general terms: In fluorescence polarisation assays a small probe gives low polarisation when free and higher when bound to something large.

The target in assay [2] is JNK3 kinase (Homo sapiens, UniProt P53779). The assay is described as follows: Assay for inhibition of JNK3 activity. Particulars: fluorescence polarization, ATP 6 μM; read-out: IC50s expressed as micromolar. The method, then:
The inhibition of the kinase activity is determined by fluorescence polarization, the JNK3 kinase phosphorylates a peptide detected by adding an anti-phosphopeptide antibody coupled to a fluorescent label.
The assay is carried out in a final volume of 30 μl; all the reagents are prepared in a buffer: • 50 mM HEPES pH 7.5 • 0.03% triton X100 • 10 mM MgCl2 • 5% Glycerol • 1 mM DTT 10 μl of the 10-times concentrated inhibitor are added to 5 μl of enzyme (40 ng final concentration), and 5 μl of incubation buffer containing 100 ng of substrate and 10 μl of ATP (6 μM final concentration) are added.

For assay [3], the target named is GSK3beta (Homo sapiens, UniProt P49841). The assay is described as follows: Assay for inhibition of GSK3beta activity. Conditions: [33P]ATP; read-out: IC50s expressed as micromolar. The method, then: The inhibition of the kinase activity is determined by measuring the phosphorylation of its substrate peptide.
The assay is carried out in a final volume of 40 μl; all the reagents are prepared in a buffer: • 50 mM HEPES pH 7.5 • 0.03% triton X100 • 10 mM MgCl2 • 5% Glycerol • 1 mM DTT 10 μl of the 10-times concentrated inhibitor are added to 5 μl of enzyme (20 ng final concentration), and 5 μl of peptide (1 μM final concentration) then 2.5 μof incubation buffer containing 16 μM ATP and 2.5 μl of radiolabeled ATP, [^33P]ATP (50 nCi) are added. After incubation for 15 minutes at ambient temperature, 10 μl of incubation buffer containing 1 μM of substrate.

Chain of GSK3beta (P49841 whole entry, species assumed): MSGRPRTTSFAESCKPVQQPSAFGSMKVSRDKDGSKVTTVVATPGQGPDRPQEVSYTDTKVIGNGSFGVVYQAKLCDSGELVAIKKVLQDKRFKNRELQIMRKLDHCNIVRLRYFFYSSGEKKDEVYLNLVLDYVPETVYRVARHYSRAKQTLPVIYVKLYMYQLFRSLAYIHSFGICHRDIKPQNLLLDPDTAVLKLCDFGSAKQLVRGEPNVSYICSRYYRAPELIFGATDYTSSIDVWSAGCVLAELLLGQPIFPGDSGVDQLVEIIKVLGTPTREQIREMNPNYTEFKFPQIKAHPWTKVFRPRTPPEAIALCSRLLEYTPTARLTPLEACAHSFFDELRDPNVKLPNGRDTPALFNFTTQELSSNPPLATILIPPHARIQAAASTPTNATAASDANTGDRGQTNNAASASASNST
Chain of JNK3 kinase (P53779 whole entry): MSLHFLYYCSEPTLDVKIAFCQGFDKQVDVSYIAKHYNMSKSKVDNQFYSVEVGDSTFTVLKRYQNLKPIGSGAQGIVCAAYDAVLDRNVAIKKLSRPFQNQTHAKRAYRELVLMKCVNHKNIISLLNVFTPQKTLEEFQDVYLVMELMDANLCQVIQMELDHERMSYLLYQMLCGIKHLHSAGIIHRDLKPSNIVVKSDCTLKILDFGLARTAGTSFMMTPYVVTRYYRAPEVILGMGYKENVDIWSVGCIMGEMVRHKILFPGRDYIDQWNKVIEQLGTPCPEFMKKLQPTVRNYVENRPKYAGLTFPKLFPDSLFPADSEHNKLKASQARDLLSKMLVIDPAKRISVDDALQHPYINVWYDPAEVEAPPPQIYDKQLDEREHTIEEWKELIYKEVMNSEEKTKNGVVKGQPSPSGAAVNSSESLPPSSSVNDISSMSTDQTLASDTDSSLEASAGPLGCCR

`Cl.N[C@H]1CC[C@H](Nc2nc(-n3cnc4cc(Cl)c(Cl)cc43)c3nc[nH]c3n2)CC1` [Example 8, Trans-N-[6-(5,6-dichloro-1H-benzimidazol-1-yl)-9H-purin-2-yl]-1,4-cyclohexanediamine hydrochloride]: in assay [1], the inhibition at 20 µM came to 98%. Also, the IC50 in assay [2] stood at 0.84 µM.

Take `Cl.Cl.N[C@H]1CC[C@H](Nc2nc(N3CCc4cc([N+](=O)[O-])ccc43)c3nc[nH]c3n2)CC1` [Example 30, Trans-N-[6-(2,3-dihydro-5-nitro-1H-indol-1-yl)-9H-purin-2-yl]-1,4-cyclohexanediamine dihydrochloride]: the IC50 in assay [3] worked out at 1.5 µM.

In general, inhibition refers to how much of the control response was suppressed.
